Tested on: CD1 female mouse brain lipidome
Assay: Brain-region lipid levels (HPLC/MS/MS lipidomics) 2 h after single i.p. 3 mg/kg CP 55,940 vs vehicle
Type: in vivo
Conditions: hippocampus
Method: The Bloomington Institutional Animal Care and Use Committee of Indiana University reviewed and approved the animal procedures. Female mice from the CD1 strain were utilized to match our study examining THC’s effects on the brain lipidome ([Leishman et al., 2018]). Mice were given a single i.p. injection of either 3 mg/kg CP or 1:1:18 cremophor:ethanol:saline vehicle (please refer to the section “3 mg/kg CP Is Relevant for Synthetic Cannabinoid Abuse and Has Stronger Effects on the Female Mouse Brain Lipidome During Adolescence” for a justification of dose and use of female mice). Three different age groups were given injections: PND 35 and PND 50 adolescents, and adult mice (PND 113). At least eight mice in each age group received CP and at least eight received vehicle. Matching the THC study time course ([Leishman et al., 2018]), mice were sacrificed via rapid decapitation 2 h after injection. Brains were immediately removed and flash-frozen in liquid nitrogen, and then stored at -80°C until dissections were performed. Brains were dissected on an ice-cold dissection plate into the following regions: STR, HIPP, CER, THAL, CTX, HYP, MID, and STEM. These abbreviations for these brain areas will be used exclusively when discussing the results generated by these specific dissections. Each dissected area was immediately placed in liquid nitrogen and then stored at -80°C until used for lipid extraction.
Tissue extracts were performed as previously described ([Bradshaw et al., 2006]; [Stuart et al., 2013]; [Raboune et al., 2014]; [Leishman et al., 2016a],[b], [2017], [2018]). First, samples were shock frozen in liquid nitrogen, weighed, and transferred to a centrifuge tube. The mass of the largest sample was multiplied by 50 to determine how many milliliters of HPLC-grade methanol (Fisher, Fair Lawn, NJ, United States) to add. Then, samples were spiked with 500 pmol deuterium-labeled NAGly (d8NAGly; Cayman Chemical, Ann Arbor, MI, United States). Samples were placed on ice in darkness for 2 h then individually homogenized and centrifuged at 19,000 × g for 20 min at 20°C. Supernatants were diluted with HPLC water (purified in house) to make a solution of 75% water, 25% supernatant. Lipids were partially purified on C18 solid phase extraction columns (Agilent, Palo Alto, CA, United States). A series of four elutions with 1.5 mL of 60%, 75%, 85%, and 100% methanol were collected ([Stuart et al., 2013]; [Leishman et al., 2016a],[b], [2018]).
As previously described ([Bradshaw et al., 2006]; [Tan et al., 2006]; [Smoum et al., 2010]; [Stuart et al., 2013]; [Tortoriello et al., 2013]; [Raboune et al., 2014]; [Leishman et al., 2016a],[b], [2017], [2018]), samples were analyzed using an Applied Biosystems API 3000 triple quadrupole mass spectrometer with electrospray ionization (Foster City, CA, United States). Using an Agilent XDB-C18 reversed phase analytical column and optimized mobile phase gradients, 20 μL from each elution were chromatographed. Two Shimadzu 10ADvp pumps (Columbia, MD, United States) provided the pressure for gradient elution. Mobile phase A: 20% methanol, 80% water (v/v) and 1 mM ammonium acetate (Sigma, St. Louis, MO, United States). Mobile phase B: 100% methanol, 1 mM ammonium acetate. Every method run began with 0% mobile phase B, reached 100% mobile phase B flowing at 0.2 mL/min, and gradually returned to 0% mobile phase B.
This screening library will be referred to as the lipidome when discussing data from this study. HPLC/MS/MS data were analyzed using Analyst software (Applied Biosystems) ([Bradshaw et al., 2006]; [Tan et al., 2006]; [Stuart et al., 2013]; [Tortoriello et al., 2013]; [Raboune et al., 2014]; [Leishman et al., 2016a],[b], [2017], [2018]). Chromatograms (Supplementary Figure 3) were generated by determining the retention time of analytes from the analytical column with a [M-1] or [M+1] parent peak and a fragmentation peak corresponding to the programmed values. […]

[1] = PND 50, 3 mg/kg CP 55,940 vs Veh
[2] = PND 50 female mice, 3mg/kg CP 55,940, mean

SMILES: CCCCCCC(C)(C)c1ccc([C@@H]2C[C@H](O)CC[C@H]2CCCO)c(O)c1 [CP 55,940]
- Linoleic acid, Magnitude (x Veh level) [1]: 0.73 x Veh level
- N-arachidonoyl alanine Magnitude (x Veh level) [1]: 0.71 x Veh level
- N-arachidonoyl alanine, Direction (relative to Veh) [1]: ↓
- N-arachidonoyl ethanolamine, Direction (relative to Veh) [1]: ↓
- N-arachidonoyl ethanolamine, Magnitude (x Veh level) [1]: 0.64 x Veh level
- N-arachidonoyl glycine Direction (relative to Veh) [1]: ↓
- N-arachidonoyl glycine Magnitude (x Veh level) [1]: 0.52 x Veh level
- N-arachidonoyl serine Direction (relative to Veh) [1]: ↓
- N-arachidonoyl serine Magnitude (x Veh level) [1]: 0.51 x Veh level
- N-arachidonoyl taurine Direction (relative to Veh) [1]: ↓
- N-arachidonoyl taurine Magnitude (x Veh level) [1]: 0.69 x Veh level
- N-arachidonoyl tyrosine, Direction (relative to Veh) [1]: ↑
- N-arachidonoyl tyrosine, Magnitude (x Veh level) [1]: 1.38 x Veh level
- N-docosahexaenoyl ethanolamine, Direction (relative to Veh) [1]: ↓
- N-docosahexaenoyl ethanolamine, Magnitude (x Veh level) [1]: 0.73 x Veh level
- N-linoleoyl ethanolamine, Direction (relative to Veh) [1]: ↓
- N-linoleoyl ethanolamine, Magnitude (x Veh level) [1]: 0.65 x Veh level
- N-linoleoyl serine Direction (relative to Veh) [1]: ↑
- N-linoleoyl serine Magnitude (x Veh level) [1]: 1.32 x Veh level
- N-oleoyl leucine Direction (relative to Veh) [1]: ↓
- N-oleoyl leucine Magnitude (x Veh level) [1]: 0.77 x Veh level
- N-oleoyl serine, Direction (relative to Veh) [1]: ↑
- N-oleoyl serine, Magnitude (x Veh level) [1]: 1.27 x Veh level
- PGE2 Direction (relative to Veh) [1]: ↑
- PGE2 Magnitude (x Veh level) [1]: 1.15 x Veh level
- PGF2α Direction (relative to Veh) [1]: ↑
- PGF2α Magnitude (x Veh level) [1]: 1.22 x Veh level
- 2-arachidonoyl glycerol level [2]: 2.77E-09
- 2-linoleoyl glycerol level [2]: 1.81E-10
- 2-oleoyl glycerol level [2]: 1.71E-09
- 2-palmitoyl glycerol level [2]: 2.49E-10
- 6-ketoPGF1α level [2]: 6.15E-11
- 11-OH-THC level [2]: BDL
- 11-nor-9-carboxyTHC level [2]: BDL
- Arachidonic acid level [2]: 1.73E-09
- Cannabidiol level [2]: BDL
- Linoleic acid level [2]: 5.21E-10
- N-arachidonoyl GABA level [2]: 2.39E-11
- N-arachidonoyl alanine level [2]: 1.94E-12
- N-arachidonoyl dopamine level [2]: BDL
- N-arachidonoyl ethanolamine level [2]: 2.58E-11
- N-arachidonoyl glycine level [2]: 4.78E-13
- N-arachidonoyl proline level [2]: BDL
- N-arachidonoyl serine level [2]: 5.36E-13
- N-arachidonoyl taurine level [2]: 8.7E-11
- N-arachidonoyl tryptophan level [2]: BDL
- N-arachidonoyl tyrosine level [2]: 2.3E-12
- N-docosahexaenoyl ethanolamine level [2]: 1.92E-11
- N-docosahexaenoyl glycine level [2]: 5.66E-14
- N-docosahexaenoyl methionine level [2]: BDL
- N-docosahexaenoyl proline level [2]: BDL
- N-docosahexaenoyl tryptophan level [2]: BDL
- N-docosahexaenoyl valine level [2]: BDL
- N-linoleoyl ethanolamine level [2]: 2.31E-11
- N-linoleoyl glycine level [2]: 8.35E-14
- N-linoleoyl methionine level [2]: BDL
- N-linoleoyl proline level [2]: BDL
- N-linoleoyl serine level [2]: 7.96E-11
- N-linoleoyl tryptophan level [2]: BDL
- N-linoleoyl valine level [2]: BDL
- N-nervonoyl valine level [2]: BDL
- N-oleoyl GABA level [2]: 1.53E-11
- N-oleoyl alanine level [2]: 2.17E-12
- N-oleoyl dopamine level [2]: BDL
- N-oleoyl ethanolamine level [2]: 8.7E-11
- N-oleoyl glycine level [2]: 1.25E-13
- N-oleoyl leucine level [2]: 7.72E-13
- N-oleoyl phenylalanine level [2]: 1.52E-13
- N-oleoyl proline level [2]: BDL
- N-oleoyl serine level [2]: 4.19E-10
- N-oleoyl tryptophan level [2]: BDL
- N-palmitoyl GABA level [2]: 1.72E-11
- N-palmitoyl alanine level [2]: 2.35E-12
- N-palmitoyl ethanolamine level [2]: 2.9E-11
- N-palmitoyl glycine level [2]: 5.47E-12
- N-palmitoyl leucine level [2]: 1.17E-12
- N-palmitoyl methionine level [2]: 9.9E-12
- N-palmitoyl phenylalanine level [2]: 9.31E-14
- N-palmitoyl proline level [2]: BDL
- N-palmitoyl serine level [2]: 1.51E-11
- N-palmitoyl tryptophan level [2]: BDL
- N-palmitoyl tyrosine level [2]: 9.92E-13
- N-stearoyl GABA level [2]: 1.36E-11
- N-stearoyl alanine level [2]: 2.21E-12
- N-stearoyl ethanolamine level [2]: 1.21E-11
- N-stearoyl glycine level [2]: 2.09E-12
- N-stearoyl leucine level [2]: 1.45E-12
- N-stearoyl phenylalanine level [2]: 9.22E-14
- N-stearoyl proline level [2]: BDL
- N-stearoyl serine level [2]: 3.94E-11
- N-stearoyl tryptophan level [2]: BDL
- Oleic acid level [2]: 5.52E-10
- PGE2 level [2]: 5.28E-10
- PGF2α level [2]: 3.99E-10
- PhosphoLEA level [2]: 9.47E-12
- THC level [2]: BDL
- 2-arachidonoyl glycerol level, Mean (adult, 3 mg/kg CP 55,940): 2.63E-09
- 2-linoleoyl glycerol level, Mean (adult, 3 mg/kg CP 55,940): 1.64E-10
- 2-linoleoyl glycerol: Direction (relative to Veh) (adult, 3 mg/kg CP 55,940): ↓
- 2-linoleoyl glycerol: Magnitude (x Veh level) (adult, 3 mg/kg CP 55,940): 0.74 x Veh level
- 2-oleoyl glycerol level, Mean (adult, 3 mg/kg CP 55,940): 1.58E-09
- 2-palmitoyl glycerol level, Mean (adult, 3 mg/kg CP 55,940): 1.43E-10

— paper PMC6277767, “Broad and Region-Specific Impacts of the Synthetic Cannabinoid CP 55,940 in Adolescent and Adult Female Mouse Brains” (Frontiers in Molecular Neuroscience, 2018)
